Experiments:
Type in all cases: cell-based
[1] = test system: B16F10 melanoma cells; test: Melanin generation in α-MSH-stimulated B16F10 melanoma cells (absorbance 405 nm); conditions: 200 nM α-MSH, fucosterol 5, 10, 20 μM, 72 hrs, P<0.01, FIG. 2
Experimental: B16F10 melanoma cells were incubated in a DMEM medium including 10% fetal bovine serum and then added in a 6-well plate with 2.5×10^5 cell/mL (the final volume of 3 mL). After being incubated for 24 hrs, the medium was removed and fucosterol which was dissolved in the DMEM medium including 200 nM α-MSH was treated at 5, 10, and 20 μM concentrations, respectively. After 72 hrs, the incubated medium was removed from the 6-well plate and 0.25% trypsin-ethylenediaminetetraacetate (trypsin-EDTA) solution was treated to collect a cell pellet, and the cell pellet was transferred to a 1.5 mL tube and centrifuged for 10 min at 10,000 rpm to remove a supernatant. […] This solution was diluted with phosphate buffered saline (PBS) and then the melanin content in a sample treatment group was calculated by measuring absorbance at 405 nm by an ELISA reader (Versa max, Sunnyvale, Calif., USA). In this case, cells without the fucosterol were set to a control group and the melanin generation degree was measured in the control group and cells treated with the fucosterol. According to Equation 1 below, the melanin content compared with the control group was calculated and the result was illustrated in FIG. 2. Melanin content (%) compared with control group=absorbance of each test material/absorbance of control group×100 [Equation 1]

[2] = test system: filaggrin; test: Filaggrin mRNA expression (RT-PCR) in HaCaT human keratinocytes; conditions: HaCaT cells, fucosterol 5, 10, 20 μM, 24 hrs, FIG. 11
Experimental: (§1) HaCaT human keratinocytes were incubated in a Dulbecco's Modified Eagle's Media (DMEM) medium including 10% fetal bovine serum and then put in a 6-well plate with 2×10^5 cell/ml (the final volume of 3 ml). After being incubated for 24 hrs, the medium was removed and fucosterol which was dissolved in the DMEM medium was treated at 5, 10, and 20 μM concentrations, respectively. After 24 hrs, the total RNA was collected by using a TRIzol reagent (Invitrogen, Carlsbad, Calif., USA) and reverse-transcribed and then a reverse transcription-polymerase chain reaction (RT-PCR) analysis was performed below. First, for cDNA synthesis, the RNA was reverse-transcribed by reverse transcriptase. The RT-PCR was performed by specific primers below and the result was illustrated in FIG. 11.

[3] = test system: loricrin; test: Loricrin mRNA expression (RT-PCR) in HaCaT human keratinocytes; conditions: HaCaT cells, fucosterol 5, 10, 20 μM, 24 hrs, FIG. 9
Experimental: as §1, with “9.” for “11.”

[4] = test system: caspase 14; test: Caspase 14 mRNA expression (RT-PCR) in HaCaT human keratinocytes; conditions: HaCaT cells, fucosterol 5, 10, 20 μM, 24 hrs, FIG. 11
Experimental: as §1

[5] = test system: TRP-2 (tyrosinase-related protein 2); test: TRP-2 protein expression (western blot) in B16F10 melanoma cells; conditions: 200 nM α-MSH, fucosterol 5 and 20 μM, 24 hrs, FIG. 6
Experimental: B16F10 melanoma cells were incubated in a DMEM medium including 10% fetal bovine serum and then added in a 6-well plate with 2.5×10^5 cell/mL (the final volume of 3 mL). After being incubated for 24 hrs, the medium was removed and fucosterol which was dissolved in the DMEM medium including 200 nM α-MSH was treated at 5 and 20 μM of concentrations, respectively. The cells after 24 hrs were lysed with a NP40 buffer solution including proteinase inhibitor cocktail and the protein amount extracted from the cells was quantified by using a Bradford reagent. The quantified protein was boiled for 5 min and isolated by electrophoresis with 10% SDS-PAGE to transfer the isolated proteins to a nitrocellular membrane. A primary antibody of […] and […] was diluted in 2.5% bovine serum albumin at a ratio of 1:1000 and reacted with the protein transferred to the nitrocellular membrane for 20 hrs at room temperature. The primary antibody was reacted and then the nitrocellular membrane was washed three times by using the TBST for 10 min. […] As the measured result, the protein expression of […] and […] was verified and it was shown that the loading amount of the protein was constant by α-tubulin.

[6] = test system: B16F10 melanoma cells; test: MTT cytotoxicity in B16F10 melanoma cells; conditions: concentration of 0 to 20 μM, 48 hrs, FIG. 1
Experimental: B16F10 melanoma cells were incubated a dulbecco's modified eagle's media (DMEM) medium including 10% fetal bovine serum and then added in a 24-well plate with 2.5×10^4 cell/mL (the final volume of 1 mL). Fucosterol of 0.1, 1, 5, 10, and 20 μM was treated in the B16F10 melanoma cells, respectively. After treatment of 48 hrs, the medium was removed and a 0.5 mg/mL MTT solution was put in each well by 0.3 mL and the B16F10 melanoma cells were incubated in an incubator for 4 hrs. After 4 hrs, the MTT solution was removed and generated formazan was dissolved by adding dimetyl sulfoxide (DMSO) and then absorbance was measured at 570 nm and the result was illustrated in FIG. 1.

C/C=C(\CC[C@@H](C)[C@H]1CC[C@H]2[C@@H]3CC=C4C[C@@H](O)CC[C@]4(C)[C@H]3CC[C@]12C)C(C)C [fucosterol]
inhibitory effect on melanin generation [1]: very excellent inhibitory effect
mRNA expression of filaggrin [2]: increased
mRNA expression of loricrin [3]: increased
mRNA expression of caspase 14 [4]: increased
protein expression of TRP-2 [5]: reduced
cytotoxicity (MTT) [6]: the cytotoxicity was not shown
